# Test results from patent publication US8673964B2, “Use of drug combinations for treating insulin resistance” (DiaMedica Inc., priority 2004, dated 2014).
# Where “and” joins values, the source holds several entries; their conditions need not be identical. Equal entries are not always repeated.
# How the values were obtained:
# sucrose fed rats = experiment: Rapid insulin sensitivity test (RIST): meal induced insulin sensitization in control diet and sucrose fed rats; format: in vivo, Sprague Dawley rats; details: individual animals
# Method: Animal Groups—Male Sprague Dawley rats having a starting weight of ≧220.0 g (Charles River, St. Constant, Quebec, Canada) were fed a normal rat chow diet and regular tap water, with and without the exposure to a 35% liquid sucrose solution for a 2 week period. Six groups of animals were established under the following treatments: […] (2) control diet, bethanechol (0.5 μg/kg ipv) and N-acetyl-L-cysteine (200 mg/kg) treatment (n=8); (3) control diet, bethanechol (0.5 μg/kg ipv) (n=5); (4) control diet, N-acetyl-L-cysteine (200 mg/kg) (n=4); (5) sucrose diet, saline treatment (n=4); (6) sucrose diet, bethanechol (0.5 μg/kg ipv) and N-acetyl-L-cysteine (200 mg/kg) treatment (n=5); (7) sucrose diet, bethanechol (0.5 μg/kg ipv) (n=6); and (8) sucrose diet, N-acetyl-L-cysteine (200 mg/kg) (n=3). Methodology—All animals are 24 hour fasted. The animals are prepared using the standard RIST surgical preparation. The rats are anaesthetized with an intraperitoneal injection of sodium pentobarbital (65 mg kg-1; Somnotol, MTC Pharmaceuticals, Ont). […] The rats are placed on a temperature-controlled surgical table (Harvard Apparatus, Kent, England) and rectal temperature is monitored and held at 37-37.5° C. Spontaneous respiration is allowed through a tracheal tube. An arterial-venous shunt is established, as previous described (Lautt W W et al. Can J Physiol Pharmacol. 1998; 76 (12): 1080-6), for monitoring mean arterial blood pressure (MAP), blood glucose level and for drug delivery. Briefly, two catheters (polyethylene tubing PE60), one inserted into the right femoral artery and the other into the right femoral vein, are connected to the two openings of a three way vascular circuit consisting of a T tube connected with silicon tubing. The third opening of the circuit is connected to a pressure transducer for the recording of the shunt pressure which, when the silicon tubing toward the venous side of the circuit is closed by clamping, represented the systemic arterial blood pressure. Blood samples are taken from the arterial side of the shunt for the glucose measurement. Flowing blood within the shunt assures the real time measurement of the blood glucose concentration, which is essential for the euglycemic clamp test as mentioned below. An infusion line is inserted into the venous side of the loop for drug delivery. Another infusion line connected to the jugular vein is established for glucose infusion. Animals are heparinized (100 IU·kg-1) to prevent clotting in the vascular loop. […] A control RIST is performed as previously described (Lautt W W et al. Can J Physiol Pharmacol. 1998; 76 (12): 1080-6). […] The baseline glucose levels are then determined by samples taken at 5-min intervals and continued until three successive stable determinations were made. […]
# [1] = tested on: Rats with Insulin Resistance Produced by Hepatic Denervation; experiment: RIST in rats with insulin resistance produced by hepatic denervation; format: in vivo
# Method: Methodology—All animals are 24 hour fasted. The animals are prepared using the standard RIST surgical preparation. The rats are anaesthetized with an intraperitoneal injection of sodium pentobarbital (65 mg kg-1; Somnotol, MTC Pharmaceuticals, Ont). Maintained anesthesia is achieved throughout the experiment by a continuous infusion of pentobarbital sodium (0.5 mg·ml-1 saline given at 50 μl·min-1) through a cannula in the jugular vein, supplemented with a 0.65 mg (0.01 ml) bolus injection when required. The rats are placed on a temperature-controlled surgical table (Harvard Apparatus, Kent, England) and rectal temperature is monitored and held at 37-37.5° C. Spontaneous respiration is allowed through a tracheal tube.
# An arterial-venous shunt is established, as previous described (Lautt W W et al. Can J Physiol Pharmacol. 1998; 76 (12): 1080-6), for monitoring mean arterial blood pressure (MAP), blood glucose level and for drug delivery. Briefly, two catheters (polyethylene tubing PE60), one inserted into the right femoral artery and the other into the right femoral vein, are connected to the two openings of a three way vascular circuit consisting of a T tube connected with silicon tubing. The third opening of the circuit is connected to a pressure transducer for the recording of the shunt pressure which, when the silicon tubing toward the venous side of the circuit is closed by clamping, represented the systemic arterial blood pressure. Blood samples are taken from the arterial side of the shunt for the glucose measurement. […]
# A control RIST is performed as previously described (Lautt W W et al. Can J Physiol Pharmacol. 1998; 76 (12): 1080-6). […] The baseline glucose levels are then determined by samples taken at 5-min intervals and continued until three successive stable determinations were made. […] After 1-min of insulin infusion, the first test glucose sample is determined and a variable glucose infusion (10%) is initiated. […]
compound,measurement,setting,value
"CC(C[N+](C)(C)C)OC(N)=O (stereo not shown) [Bethanechol, bethanechol]",percent potentation of RIST as compared to control,"sucrose fed rats; Control Diet, bethanechol 0.5 μg/kg ipv alone, listed as BCH",9.06% and 15.19% and 35.62% and 33.87% and 60.33%
same,percent potentation of RIST as compared to control,"sucrose fed rats; Sucrose Diet, bethanechol 0.5 μg/kg ipv alone, listed as BCH",45.59% and 13.22% and −13.22% and 14.22% and 7.71% and 22.36%
same,RIST index after surgical hepatic denervation,"[1]; bethanechol infusion into the portal vein 2.5 mg/kg/min from 10 minutes prior to insulin, entire test period",reversal of the insulin resistance
"[NH-]c1c[n+](N2CCOCC2)no1 [SIN-1, 3-morpholinosyndnonimine]",RIST index after surgical hepatic denervation,[1]; SIN-1 infusion into the portal vein 10.0 mg/kg/min for 2 minutes,reversal of the insulin resistance
"CC(=O)N[C@@H](CS)C(=O)O [NAC, N-acetyl-L-cysteine]",percent potentation of RIST as compared to control,"sucrose fed rats; Control Diet, N-acetyl-L-cysteine 200 mg/kg alone",33.5% and 27.39% and 57.25% and 1.89%
same,percent potentation of RIST as compared to control,"sucrose fed rats; Sucrose Diet, N-acetyl-L-cysteine 200 mg/kg alone",3% and −13.85% and −2.63%
same,RIST index after surgical hepatic denervation,[1]; NAC (200 mg/mL) infusion into the portal vein 0.1 mL/min for 2 minutes,reversal of the insulin resistance
